# Assay results taken from patent US20260165323A1, “USE OF STROBILURIN TYPE COMPOUNDS FOR COMBATING PHYTOPATHOGENIC FUNGI CONTAINING AN AMINO ACID SUBSTITUTION F129L IN THE MITOCHONDRIAL CYTOCHROME B PROTEIN CONFERRING RESISTANCE TO QO […]” (priority 2022, published 2026).
# Key:
# Format in all cases: in vivo
# Puccinia recondita [1] = assay: Use Example 3: curative control of brown rust on wheat (PUCCRT K4); details: % diseased leaf area
# Description: The compound was dissolved in a mixture of acetone and/or dimethylsulfoxide and the wetting agent/emulsifier Wettol, which is based on ethoxylated alkylphenoles, in a ratio (volume) solvent-emulsifier of 99 to 1 to give a total volume of 5 ml. Subsequently, water was added to total volume of 100 ml. This stock solution was then diluted with the described solvent-emulsifier-water mixture to the final concentration given in the tables below.
# Use Example 3. Curative Control of Brown Rust on Wheat Caused by Puccinia recondita (PUCCRT K4)
# The first two developed leaves of potted wheat seedling were dusted with spores of Puccinia recondita. To ensure the success the artificial inoculation, the plants were transferred to a humid chamber without light and a relative humidity of 95 to 99% and 20 to 24° C. for 24 h. The next 3 days the plants were cultivated in a greenhouse chamber at 20 to 24° C. and a relative humidity between 65 and 70%. Then the plants were sprayed to run-off with previously described spray solution, containing the concentration of active ingredient or their mixture as described below. The plants were allowed to air-dry. Then the trial plants were cultivated for 5 to 7 days in a greenhouse chamber at 20 to 24° C. and a relative humidity between 65 and 70%. The extent of fungal attack on the leaves was visually assessed as % diseased leaf area, the disease level of untreated controls was usually between 80 and 100%.
# [2] = test system: Phakopsora pachyrhizi containing the amino acid substitution F129L in the mitochondrial cytochrome b protein; assay: Use Example 2: protective control of soybean rust on soybeans (PHAKPA P6); details: inoculated six days after spraying, % diseased leaf area
# Procedure, shortened: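 Compound in acetone and/or DMSO with Wettol (99:1), diluted with water, was sprayed to run-off on potted soybean seedlings. After six days at 23–27°C and 60–80% RH, plants were inoculated with a Qo-resistant F129L strain and held 24 h at about 95% RH. Percent diseased leaf area was scored visually after up to 14 days.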
# Puccinia recondita [3] = assay: Use Example 4: preventative control of brown rust on wheat (PUCCRT P7); details: inoculated seven days after spraying, % diseased leaf area
# Procedure, shortened: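 First two leaves of potted wheat seedlings sprayed to run-off with compound in acetone/DMSO–emulsifier–water, then inoculated with Puccinia recondita spores seven days later. Plants held 24 h dark at 95–99% RH and 20–24 °C, then 9–11 days in greenhouse; diseased leaf area (%) scored visually.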
# [4] = test system: Phakopsora pachyrhizi containing the amino acid substitution F129L in the mitochondrial cytochrome b protein; assay: Use Example 1: protective control of soybean rust on soybeans (PHAKPA P2); details: inoculated 2 days after spraying, % diseased leaf area
# Procedure, shortened: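 Soybean seedling leaves sprayed to run-off with compound in acetone/DMSO–Wettol–water at the stated concentration, kept 2 days at 23-27° C, then inoculated with Qo-inhibitor-resistant F129L P. pachyrhizi. After 24 h at ~95% RH, 20-24° C, and up to 14 days in greenhouse, % diseased leaf area scored visually.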
Compound,% PUCCRT Disease level K4 at 4 ppm (Puccinia recondita [1]) [%],% PUCCRT Disease level K4 at 16 ppm (Puccinia recondita [1]) [%],% PHAKPA (F129L) Disease level P6 at 4 ppm [2] [%],% PHAKPA (F129L) Disease level P6 at 16 ppm [2] [%],% PUCCRT Disease level P7 at 4 ppm (Puccinia recondita [3]) [%],% PUCCRT Disease level P7 at 16 ppm (Puccinia recondita [3]) [%],% PHAKPA (F129L) Disease level P2 at 4 ppm [4] [%],% PHAKPA (F129L) Disease level P2 at 16 ppm [4] [%]
CCOC/C(=N\OCc1c(Cl)cccc1/C(=C\OC)C(=O)OC)c1cccc(Cl)c1 [compound 38],50,8,50,6,20,2,23,3
"CO/C=C(/C(=O)OC)c1cccc(Cl)c1CO/N=C(\COC)c1ccc(F)cn1 [compound 131, Methyl (E)-2-[3-chloro-2-[[(Z)-[1-(5-fluoro-2-pyridyl)-2-methoxy-ethylidene]amino]oxymethyl]phenyl]-3-methoxy-prop-2-enoate]",2,0,1,0,32,1,1,0
CNC(=O)/C(=N/OC)c1cccc(Cl)c1CO/N=C(\COC)c1ccc(Cl)c(Cl)c1 [compound 69],33,3,15,1,7,3,43,7
COC/C(=N\OCc1c(Cl)cccc1/C(=N\OC)C(=O)OC)c1ccc(F)cc1F [compound 62],37,2,6,0,55,1,5,0
"CO/C=C(/C(=O)OC)c1cccc(Cl)c1CO/N=C(\COC)c1ccccn1 [compound 129, Methyl (E)-2-[3-chloro-2-[[(Z)-[2-methoxy-1-(2-pyridyl)ethylidene]amino]oxymethyl]phenyl]-3-methoxy-prop-2-enoate]",11,1,4,1,–,18,1,0
CNC(=O)/C(=N/OC)c1cccc(Cl)c1CO/N=C(\COC)c1cc(F)c(F)c(F)c1 [compound 74],37,3,1,0,12,3,12,2
CO/C=C(/C(=O)OC)c1cccc(Cl)c1CO/N=C(\COC)c1ccc(F)c(F)c1F [compound 101],35,3,6,0,54,3,2,0
CO/C=C(/C(=O)OC)c1cccc(Cl)c1CO/N=C(\COC)c1ccc(Cl)c(Cl)c1 [compound 71],34,3,28,7,4,3,31,4
CCOC/C(=N\OCc1c(Cl)cccc1/C(=N\OC)C(=O)NC)c1ccccc1 [compound 55],77,47,40,9,53,29,37,1
CO/C=C(/C(=O)OC)c1cccc(Br)c1CO/N=C(\COC)c1ccccc1 [compound 59],11,0,1,0,22,0,0,0
CCOC/C(=N\OCc1c(Cl)cccc1/C(=N\OC)C(=O)NC)c1cccc(F)c1 [compound 42],70,42,32,4,62,12,11,0
CO/C=C(/C(=O)OC)c1cccc(Cl)c1CO/N=C(\COC)c1ccc(Cl)cc1 [compound 35],73,7,30,4,14,0,16,1
CCOCC(=NOCc1c(Cl)cccc1C(=COC)C(=O)OC)c1ccc(F)cc1 [compound 23],67,23,25,6,37,6,9,0
CO/C=C(/C(=O)OC)c1cccc(Cl)c1CO/N=C(\COC)c1ccc(F)cc1Cl [compound 93],83,19,43,15,53,16,13,1
CCOC/C(=N\OCc1c(F)cccc1/C(=C\OC)C(=O)OC)c1ccc(F)cc1 [compound 16],83,57,70,17,80,43,20,4
CCOC/C(=N\OCc1c(Cl)cccc1/C(=N\OC)C(=O)OC)c1ccc(Cl)cc1 [compound 44],75,73,80,68,77,37,95,55
CO/C=C(/C(=O)OC)c1cccc(Cl)c1CO/N=C(\COC)c1cccc(C#N)c1 [compound 116],5,0,48,11,15,3,31,3
CO/C=C(/C(=O)OC)c1cccc(Cl)c1CO/N=C(\COC)c1ccc(Cl)cc1F [compound 106],28,4,8,1,19,2,14,1
